Results reported in ChEMBL document CHEMBL3396977, “Design, synthesis and docking study of novel tetracyclic oxindole derivatives as α-glucosidase inhibitors” (Bioorg Med Chem Lett, 2015).
pIC50: −log10 of the molar value. The source made the active and inactive calls. The calls are words filed in the database; no cut-off is given here.

Molecular target: Oligo-1,6-glucosidase IMA1 (Saccharomyces cerevisiae S288c) (UniProt P53051)
Assay: Ratio of acarbose IC50 to compound IC50 for bakers yeast alpha-glucosidase using p-nitrophenyl-alpha-D-glucopyranoside as substrate after 30 mins by spectrophotometry

Chain of Oligo-1,6-glucosidase IMA1 (Saccharomyces cerevisiae S288c) (P53051 whole entry): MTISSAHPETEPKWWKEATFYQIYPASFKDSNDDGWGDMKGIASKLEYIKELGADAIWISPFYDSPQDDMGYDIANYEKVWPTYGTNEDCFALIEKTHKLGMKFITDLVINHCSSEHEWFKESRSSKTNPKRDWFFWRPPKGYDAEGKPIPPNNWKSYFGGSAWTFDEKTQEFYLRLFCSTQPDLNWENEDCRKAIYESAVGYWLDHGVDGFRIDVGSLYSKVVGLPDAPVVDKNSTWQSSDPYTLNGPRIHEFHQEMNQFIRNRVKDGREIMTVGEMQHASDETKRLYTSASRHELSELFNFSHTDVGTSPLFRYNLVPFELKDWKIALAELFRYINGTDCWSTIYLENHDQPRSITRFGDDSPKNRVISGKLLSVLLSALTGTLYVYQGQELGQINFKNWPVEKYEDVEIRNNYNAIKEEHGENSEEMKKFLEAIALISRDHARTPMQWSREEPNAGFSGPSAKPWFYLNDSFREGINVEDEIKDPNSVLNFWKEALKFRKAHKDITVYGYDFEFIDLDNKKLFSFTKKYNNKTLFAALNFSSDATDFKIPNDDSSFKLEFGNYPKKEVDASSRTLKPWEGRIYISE

Ratio IC50 | Structure (SMILES)
20 | O=C(O)CC1Oc2ccccc2-c2ccc3c(c21)C(=O)C(=O)N3Cc1ccc(C(F)(F)F)cc1 (configuration not stated)

Molecular target: Oligo-1,6-glucosidase IMA1 (Saccharomyces cerevisiae S288c) (UniProt P53051)
Assay: Competitive inhibition of bakers yeast alpha-glucosidase using p-nitrophenyl-alpha-D-glucopyranoside as substrate at 0.5 to 5 uM after 30 mins by Lineweaver-Burk plot analysis

inhibition | Structure (SMILES)
Active | O=C(O)CC1Oc2ccccc2-c2ccc3c(c21)C(=O)C(=O)N3Cc1ccc(C(F)(F)F)cc1 (configuration not stated)

Molecular target: Alpha-glucosidase MAL12 (Saccharomyces cerevisiae S288c, UniProt P53341)
Assay: Inhibition of bakers yeast alpha-glucosidase using p-nitrophenyl-alpha-D-glucopyranoside as substrate after 30 mins by spectrophotometry

Chain of Alpha-glucosidase MAL12 (P53341 whole entry): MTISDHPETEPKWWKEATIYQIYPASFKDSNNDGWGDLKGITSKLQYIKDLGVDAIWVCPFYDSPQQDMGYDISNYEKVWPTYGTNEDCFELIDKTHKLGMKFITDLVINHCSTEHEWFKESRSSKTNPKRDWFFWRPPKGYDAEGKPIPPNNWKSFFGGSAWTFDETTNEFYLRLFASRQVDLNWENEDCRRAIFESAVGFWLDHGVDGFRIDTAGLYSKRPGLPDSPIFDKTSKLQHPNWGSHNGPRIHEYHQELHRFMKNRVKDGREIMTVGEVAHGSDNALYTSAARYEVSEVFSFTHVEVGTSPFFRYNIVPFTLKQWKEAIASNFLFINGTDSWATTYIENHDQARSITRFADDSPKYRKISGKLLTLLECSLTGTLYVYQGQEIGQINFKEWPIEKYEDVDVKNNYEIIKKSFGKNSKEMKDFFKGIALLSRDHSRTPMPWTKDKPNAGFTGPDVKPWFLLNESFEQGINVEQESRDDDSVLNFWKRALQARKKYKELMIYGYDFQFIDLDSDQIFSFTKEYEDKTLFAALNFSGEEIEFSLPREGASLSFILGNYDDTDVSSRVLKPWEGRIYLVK

Structure (SMILES) | pIC50
CN1C(=O)C(=O)c2c1ccc1c2C(CC(=O)O)Nc2ccccc2-1 (configuration not stated) | 3.73
COC(=O)CC1c2c(ccc3c2C(=O)C(=O)N3C)-c2ccccc2N1C(C)=O (configuration not stated) | < 3.52
COC(=O)CC1Nc2ccccc2-c2cc(C)c3c(c21)C(=O)C(=O)N3C (configuration not stated) | 3.93
COC(=O)CC1c2c(ccc3c2C(=O)C(=O)N3C)-c2ccccc2N1S(=O)(=O)c1ccccc1 (configuration not stated) | 4.11
COC(=O)CC1c2c(ccc3c2C(=O)C(=O)N3C)-c2ccccc2N1C(=O)c1ccccc1 (configuration not stated) | 3.82
COC(=O)CC1c2c(ccc3c2C(=O)C(=O)N3C)-c2ccccc2N1C(=O)c1ccc(OC)cc1 (configuration not stated) | 3.95
COC(=O)CC1Nc2ccccc2-c2ccc3c(c21)C1(OCC(C)(C)CO1)C(=O)N3C (configuration not stated) | < 3.52
COC(=O)CC1Oc2ccccc2-c2ccc3c(c21)C(=O)C(=O)N3C (configuration not stated) | 3.98
COC(=O)CC1Nc2ccccc2-c2ccc3c(c21)C(=O)C(=O)N3C (configuration not stated) | 3.54

Continued, values first:

pIC50 | Structure (SMILES)
4.37 | COC(=O)CC1c2c(ccc3c2C(=O)C(=O)N3C)-c2ccccc2N1S(=O)(=O)c1ccc(F)cc1 (configuration not stated)
4.54 | CN1C(=O)C(=O)c2c1ccc1c2C(CC(=O)O)Oc2ccccc2-1 (configuration not stated)
4.12 | COC(=O)CC1c2c(ccc3c2C(=O)C(=O)N3C)-c2ccccc2N1C(=O)c1ccc(Cl)cc1 (configuration not stated)
4.92 | COC(=O)CC1Oc2ccccc2-c2ccc3c(c21)C(=O)C(=O)N3Cc1ccccc1 (configuration not stated)
4.34 | COC(=O)CC1Nc2ccccc2-c2ccc3c(c21)C(=O)C(=O)N3Cc1ccc(OC)cc1 (configuration not stated)
4.80 | COC(=O)CC1Oc2ccccc2-c2ccc3c(c21)C(=O)C(=O)N3Cc1ccc(C(F)(F)F)cc1 (configuration not stated)
4.80 | O=C(O)CC1Oc2ccccc2-c2ccc3c(c21)C(=O)C(=O)N3Cc1ccccc1 (configuration not stated)
4.49 | COC(=O)CC1Oc2ccccc2-c2ccc3c(c21)C(=O)C(=O)N3Cc1ccc(OC)cc1 (configuration not stated)
5.32 | O=C(O)CC1Oc2ccccc2-c2ccc3c(c21)C(=O)C(=O)N3Cc1ccc(C(F)(F)F)cc1 (configuration not stated)
4.41 | COC(=O)CC1Oc2ccccc2-c2cc(C)c3c(c21)C(=O)C(=O)N3Cc1ccccc1 (configuration not stated)
4.46 | COC(=O)CC1Oc2ccccc2-c2cc(C)c3c(c21)C(=O)C(=O)N3C (configuration not stated)
